Results: patent US20240238299A1, “USE OF PYRROLOPYRIMIDINE COMPOUND” (GUANGZHOU JOYO PHARMATECH CO., LTD, priority 2021, published 2024)

How the values were obtained:
[1] = tested on: IL-2-induced pSTAT5 in hPBMC; experiment: IL-2-induced pSTAT5 in hPBMC (flow cytometry, CD4 positive cells); assay type: cell-based; settings: Homo sapiens, 4 ng/mL IL-2, CD4 positive cells
Experimental: • 1) Preparation of culture medium: 1640 medium+10% fetal bovine serum+1% penicillin/streptomycin+1% non-essential amino acids (all percentages were v/v) • 2) Cells were thawed in a 37° C. water bath and then centrifuged. The cell concentration was adjusted to 5×10^5 cells/mL using the prepared culture medium. • 3) Cell suspension was seeded into a 96-well round-bottom plate at 200 μL/well and incubated at 37° C. for 90 minutes. • 4) Drugs were added, followed by a 37° C. incubation for 30 minutes. • 5) Cells were then stimulated by adding 10 ng/mL of IL-6 or 4 ng/mL of IL-2, followed by a 37° C. incubation for 15 minutes.
• 1) After completing the stimulation, cells were centrifuged and washed once with staining buffer (DPBS+2% bovine serum albumin). Antibodies were then added for a 30-minute staining process at 4° C. […]
• 1) Response %=[(MFI value of drug-treated well−mean MFI value of control well)/(mean MFI value of DMSO well−mean MFI value of control well)]*100% was calculated. • 2) The calculated Response % values were input into GraphPad Prism 8 software. […]

[2] = tested on: mouse CCL5 secretion by BV-2 cell line; experiment: CCL5 secretion by LPS/IFN-γ-activated BV-2 cells (ELISA); assay type: cell-based
Experimental: Step 1: BV-2 cells in the exponential growth phase were collected, and viable cells were counted using a Vi-Cell XR cell counter. The cell suspension was adjusted to an appropriate concentration with the culture medium. 160 μL of cell suspension was added to each well of a 96-well cell culture plate, resulting in a final cell concentration of 12,000 cells per well. The culture plate was incubated for 24 hours in a 37° C., 5% CO2 incubator.
Step 2: A 10 mM DMSO compound stock solution was diluted at a ratio of 1:4 using DMSO to prepare a series of 1000× test compound solutions. These 1000× test compound solutions were further diluted at a ratio of 1:100 using cell culture medium to prepare a series of 10× test compound solutions. Finally, the 96-well plate that had been plated with cells the day before was taken out. According to the experimental well plate loading design, 20 μL of the corresponding 10× solution was added to each well, with three duplicate wells for each drug concentration. The final concentrations of the test compounds used in the experiment (i.e., 1× solutions) have a range of 10, 2.5, 0.625, 0.156, 0.0391, 0.0098, and 0.0024 μM. The final DMSO concentration in each well was 0.1%.
After the compound was added, the 96-well plate was incubated for half an hour in the 37° C., 5% CO2 incubator.
After the pre-incubation was completed, 20 μL of culture medium containing 100 ng/mL LPS and 100 ng/mL IFN-γ (final concentrations of 10 ng/mL LPS and 10 ng/mL IFN-7) was added to each well to induce the activation of BV-2 cells. The culture plate was then incubated for 24 hours in the 37° C., 5% CO2 incubator. […]
Step 5 (NO and CCL5 detection): The CCL5 levels in the supernatant were detected using an ELISA kit (Mouse CCL5/RANTES DuoSet ELISA; R&D; DY478-05), following the instructions provided with the kit. The nitric oxide (NO) levels in the supernatant were detected using the Griess Reagent System (Promega; G2930), following the instructions provided with the kit.
Step 1: Firstly, the optical density values obtained from ELISA and Griess tests were used to plot a standard curve and calculate the absolute concentrations of each sample. The absolute concentration was then calibrated using the CTG fluorescence value corresponding to each sample to obtain the calibrated concentration. The formula for calculating the calibrated concentration was: calibrated concentration=absolute concentration/CTG fluorescence value of the same sample.
Step 2: Based on the calibrated concentration of each sample, the relative percentage of CCL5 or NO secretion (i.e., CCL5 production (%) or NO production (%)) at each test concentration relative to the blank (DMSO) group was calculated. […]

With `CN(c1ncnc2[nH]ccc12)[C@@H]1CCc2cc(C#N)nn2C1` [Compound I] the IC50 [1] was 0.0363 µM, the “Maximum inhibition rate on CCL5 secretion by BV-2” value ([2]; 24 h co-incubation, up to 10 μM) was 80.29% and the IC50 ([2]; Mus musculus, BV-2, 24 h co-incubation) was 0.863 µM.
